Source: patent US7452911B2 (Boehringer Ingelheim Pharma GmbH & Co. KG, priority 2002, dated 2008)
pIC50: −log10 of the molar value.

Key:
hMCH-1R = biological target: T1, hMCH-1R (Homo sapiens, UniProt Q99705); assay: MCH-1 receptor binding test (125I-MCH binding to membranes of hMCH-1R transfected CHO/Galpha16 cells); settings: 100 pM 125I-MCH, membranes of CHO/Galpha16 cells stably transfected with hMCH-1R, 60 minutes at ambient temperature
T1 construct: expressed in transfected cells; host or cells: CHO/Galpha16 cells, stably transfected; membrane preparation
Experimental: Membranes from CHO/Galpha16 cells stably transfected with human hMCH-1R are resuspended using a syringe (needle 0.6×25 mm) and diluted in test buffer (50 mM HEPES, 10 mM MgCl2, 2 mM EGTA, pH 7.00; 0.1% bovine serum albumin (protease-free), 0.021% bacitracin, 1 μg/ml aprotinin, 1 μg/ml leupeptin and 1 μM phosphoramidone) to a concentration of 5 to 15 μg/ml. […] After the incubation the reaction is filtered using a cell harvester through 0.5% PEI treated glass fibre filters (GF/B, Unifilter Packard). The membrane-bound radioactivity retained on the filter is then determined after the addition of scintillator substance (Packard Microscint 20) in a measuring device (TopCount of Packard).
The analysis of the concentration binding curve is carried out on the assumption of one receptor binding site.

MCH-1R [1] = biological target: T2, MCH-1R (Rattus norvegicus, UniProt P97639); set-up: host or cells: whole animals (in vivo); settings: animals treated with the antagonist; cited from earlier work
MCH-1R [2] = biological target: T2, MCH-1R; set-up: host or cells: rats (in vivo); settings: rats; cited from earlier work

T2 sequence (P97639 whole entry): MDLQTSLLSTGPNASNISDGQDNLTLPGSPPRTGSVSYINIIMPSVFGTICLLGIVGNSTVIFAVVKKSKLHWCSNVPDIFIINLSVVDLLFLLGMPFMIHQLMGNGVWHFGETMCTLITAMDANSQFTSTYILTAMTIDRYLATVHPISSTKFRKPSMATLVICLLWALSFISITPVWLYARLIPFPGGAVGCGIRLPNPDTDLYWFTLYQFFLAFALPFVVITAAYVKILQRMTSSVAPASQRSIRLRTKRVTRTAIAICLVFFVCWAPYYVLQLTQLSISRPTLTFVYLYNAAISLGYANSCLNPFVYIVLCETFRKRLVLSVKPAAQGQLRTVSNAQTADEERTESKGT
T1 sequence (Q99705 whole entry): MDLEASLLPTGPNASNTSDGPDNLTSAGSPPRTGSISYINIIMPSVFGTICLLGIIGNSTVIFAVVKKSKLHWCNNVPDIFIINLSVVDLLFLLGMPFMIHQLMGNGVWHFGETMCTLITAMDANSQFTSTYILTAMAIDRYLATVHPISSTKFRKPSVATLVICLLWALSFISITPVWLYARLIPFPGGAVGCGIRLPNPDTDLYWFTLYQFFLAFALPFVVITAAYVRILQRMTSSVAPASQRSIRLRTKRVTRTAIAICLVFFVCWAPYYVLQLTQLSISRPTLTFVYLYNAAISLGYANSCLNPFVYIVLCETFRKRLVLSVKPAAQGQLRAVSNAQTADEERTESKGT

melting point | SMILES | further results
> 250 °C | CN(C)CC1CCN(CCOc2ccc(C#Cc3ccc(-c4ccc(Cl)cc4)cn3)cc2)CC1.Cl | 
 | CCN(CC)CCOc1ccc(C#Cc2ccc(-c3ccc(F)c(F)c3)cn2)cc1 [Example 1.3, (2-{4-[5-(3,4-difluoro-phenyl)-pyridin-2-ylethynyl]-phenoxy}-ethyl)-diethyl-amine] | pIC50 (hMCH-1R): 7.13
170 to 193 °C | Clc1ccc(-c2ccc3nc(C#Cc4ccc(CN5CCCC5)cc4)ccc3c2)cc1 [Example 17, 6-(4-chloro-phenyl)-2-(4-pyrrolidin-1-ylmethyl-phenylethynyl)-quinoline] | 
176 to 185 °C | Clc1ccc(-c2ccc3nc(C#Cc4ccc(OCCN5CCCC5)cc4)ccc3c2)cc1 [Example 18, 6-(4-chloro-phenyl)-2-[4-(2-pyrrolidin-1-yl-ethoxy)-phenylethynyl]-quinoline] | 
114 to 117 °C | Clc1ccc(-c2ccc3nc(C#Cc4cccc(OCCN5CCCC5)c4)ccc3c2)cc1 [Example 19, 6-(4-chloro-phenyl)-2-[3-(2-pyrrolidin-1-yl-ethoxy)-phenylethynyl]-quinoline] | 
151 to 153 °C | Clc1ccc(-c2ccc3nc(C#Cc4ccc5oc(CN6CCCC6)nc5c4)ccc3c2)cc1 [Example 20, 6-(4-chloro-phenyl)-2-(2-pyrrolidin-1-ylmethyl-benzoxazol-5-ylethynyl)-quinoline] | 
145 °C | Clc1ccc(-c2ccc(C#Cc3ccc4oc(CN5CCCC5)nc4c3)nc2)cc1 [Example 21, 5-[5-(4-chloro-phenyl)-pyridin-2-ylethynyl]-2-pyrrolidin-1-ylmethyl-benzoxazole] | 
 | COCC1=C(C(=O)OC)[C@H](c2ccc(F)c(F)c2)N(C(=O)NCCCN2CCC(c3cccc(NC(C)=O)c3)CC2)C(=O)N1 [SNAP-7941] | body weight in long term trials (MCH-1R [1]): lose significant amounts of weight; effects in behavioural experiments (MCH-1R [2]): anxiolytic and antidepressant effects
